The results in this text go back to US20240300980A1, “HETEROCYCLIC COMPOUNDS AS KRAS INHIBITOR, AND PREPARATION THEREFOR AND USE THEREOF IN TREATMENT” (SHANGHAI KECHOW PHARMA, INC., priority 2021, published 2024).

This assay relates to AGS cells (KRAS^G12D). The experiment in a line: Detection of cell proliferation in vitro by MTT/MTS method (cell activity experiment). Type of assay: cell-based. Conditions: Homo sapiens, AGS, 72 h, AGS cells; MTT/MTS; 3 days of drug treatment; read-out: AGS IC50. In outline:
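KRAS G12D AGS cells seeded at 1000 per well, compound added 24 h later, 0.5% final DMSO. Viability read after 3 days of treatment by MTT (solubilised in DMSO) or MTS, 4 h, absorbance 490 nm. IC50 from dose–response curves versus DMSO control.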
On the technique in general: Tetrazolium assays rely on reduction of a dye to a coloured formazan, in cell work by metabolically active cells.
Consider `Oc1cc(-c2ccc3c(N4C[C@H]5CC[C@@H](C4)C5(F)F)nc(OC[C@@]45CCCN4C[C@H](F)C5)nc3c2F)c2c(F)c(F)ccc2c1` [Example 122, 4-(4-((1R,5S)-8,8-difluoro-3-azabicyclo [3.2.1]octan-3-yl)-8-fluoro-2-(((2R,7aS)-2-fluorotetrahydro-1H-pyrrolizin-7a(5H)-yl)methoxy)quinazolin-7-yl)-5,6-difluoronaphthalen-2-ol], for which the IC50 – broadly, the concentration that gives 50% inhibition – is above 2500 nM.

`CCC1c2c(C3=C(F)c4nc(OC[C@@]56CCCN5C[C@H](F)C6)nc(N5C[C@H]6CC[C@@H](C5)N6)c4C4=NCCN43)cc(O)cc2C2CC21` (stereo partly drawn) [Example 409, 5-(10-((1R,5S)-3,8-diazabicyclo[3.2.1]octan-3-yl)-6-fluoro-8-(((2R,7aS)-2-fluorotetrahydro-1H-pyrrolizin-7a(5H)-yl)methoxy)-2,3-dihydroimidazo[1′,2′:1,2]pyrido[4,3-d]pyrimidin-5-yl)-6-ethyl-1,1a,6,6a-tetrahydrocyclopropa[a]inden-3-ol]: the IC50 amounted to 45 nM.

With `Oc1cc2c(c(-c3ncc4c(N5C[C@H]6CC[C@@H](C5)N6)nc(OC[C@@]56CCCN5C[C@H](F)C6)nc4c3F)c1)C(C1CC1)CC2` (stereo partly drawn) [Example 267, 7-(4-((1R,5S)-3,8-diazabicyclo[3.2.1]octan-3-yl)-8-fluoro-2-(((2R,7aS)-2-fluorotetrahydro-1H-pyrrolizin-7a(5H)-yl)methoxy)pyrido[4,3-d]pyrimidin-7-yl)-1-cyclopropyl-2,3-dihydro-1H-inden-5-ol], the IC50 was 1050 nM.

Take `CCc1cccc2cc(O)cc(-c3ncc4c(N5C[C@H]6CC[C@@H](C5)N6)nc(OCC5(CN6CCCC6)CC5)nc4c3F)c12` [Example 4, 4-(4-((1R,5S)-3,8-diazabicyclo[3.2.1]octan-3-yl)-8-fluoro-2-((1-(pyrrolidin-1-ylmethyl)cyclopropyl)methoxy)pyrido[4,3-d]pyrimidin-7-yl)-5-ethylnaphthalen-2-ol]: the IC50 is 11 nM.

For `C#Cc1c(F)ccc2cc(O)cc(-c3ncc4c(C5CCN(C(=O)CO)C5)nc(OC[C@@]56CCCN5C[C@H](F)C6)nc4c3F)c12` (stereo partly drawn) [Example 84, 1-(3-(7-(8-ethynyl-7-fluoro-3-hydroxynaphthalen-1-yl)-8-fluoro-2-(((2R,7aS)-2-fluorotetrahydro-1H-pyrrolizin-7a(5H)-yl)methoxy)pyrido[4,3-d]pyrimidin-4-yl)pyrrolidin-1-yl)-2-hydroxyethan-1-one], the IC50 was above 10000 nM.

For the molecule `Cc1cc(N)nc(-c2ccc3c(N4C[C@H]5CC[C@@H](C4)N5)nc(OC[C@@]45CCCN4C[C@H](F)C5)nc3c2F)c1C1CC1` [Example 139, 6-(4-((1R,5S)-3,8-diazabicyclo[3.2.1]octan-3-yl)-8-fluoro-2-(((2R,7aS)-2-fluorotetrahydro-1H-pyrrolizin-7a(5H)-yl)methoxy)quinazolin-7-yl)-5-cyclopropyl-4-methylpyridin-2-amine], the 50% inhibitory concentration (IC50) was above 2500 nM.

Turning to `C#Cc1c(F)ccc2cc(O)cc(-c3ccc4c(N5CCC6(CC5)CO[C@@H](C)[C@H]6N)nc(OC[C@@]56CCCN5C[C@H](F)C6)nc4c3F)c12` [Example 114, 4-(4-((3S,4S)-4-amino-3-methyl-2-oxa-8-azaspiro[4.5]decan-8-yl)-8-fluoro-2-(((2R, 7aS)-2-fluorotetrahydro-1H-pyrrolizin-7a(5H)-yl)methoxy)quinazolin-7-yl)-5-ethynyl-6-fluoronaphthalen-2-ol], the half-inhibitory concentration (IC50) is above 2500 nM.

With `CCc1cccc2cc(O)cc(-c3ncc4c(N5C[C@H]6CC[C@@H](C5)N6)c(C#N)c(OC[C@@]56CCCN5C[C@H](F)C6)nc4c3F)c12` [Example 190, 4-((1R,5S)-3,8-diazabicyclo[3.2.1]octan-3-yl)-7-(8-ethyl-3-hydroxynaphthalen-1-yl)-8-fluoro-2-(((2R,7aS)-2-fluorotetrahydro-1H-pyrrolizin-7a(5H)-yl)methoxy)-1,6-naphthyridine-3-carbonitrile], the IC50 is 150 nM.

For `C#Cc1c(F)ccc2cc(O)cc(-c3ncc4c(N5C[C@H]6CC[C@@H](C5)C6(F)F)nc(OC[C@@]56CCCN5C[C@H](F)C6)nc4c3F)c12` [Example 30, 4-(4-((1R,5S)-8,8-difluoro-3-azabicyclo[3.2.1]octan-3-yl)-8-fluoro-2-(((2R,7aS)-2-fluorotetrahydro-1H-pyrrolizin-7a(5H)-yl)methoxy)pyrido[4,3-d]pyrimidin-7-yl)-5-ethynyl-6-fluoronaphthalen-2-ol], the half-maximal inhibitory concentration (IC50) was above 2500 nM.

Take `C#Cc1c(F)ccc2cc(O)cc(-c3c(CCC#N)cc4c(N5C[C@H]6CC[C@@H](C5)N6)nc(OC[C@@]56CCCN5C[C@H](F)C6)nc4c3F)c12` [Example 378, 3-(4-((1R,5S)-3,8-diazabicyclo[3.2.1]octan-3-yl)-7-(8-ethynyl-7-fluoro-3-hydroxynaphthalen-1-yl)-8-fluoro-2-(((2R,7aS)-2-fluorotetrahydro-1H-pyrrolizin-7a(5H)-yl)methoxy)quinazolin-6-yl)propanenitrile]: the half-inhibitory concentration (IC50) is 160 nM.

As for `C#Cc1cc2c(N3C[C@H]4CC[C@@H](C3)N4)nc(OC[C@@]34CCCN3C[C@H](F)C4)nc2c(F)c1-c1cc(O)cc2c1C(CC)CC2` (stereo partly drawn) [Example 371, 7-(4-((1R,5S)-3,8-diazabicyclo[3.2.1]octan-3-yl)-6-ethynyl-8-fluoro-2-(((2R,7aS)-2-fluorotetrahydro-1H-pyrrolizin-7a(5H)-yl)methoxy)quinazolin-7-yl)-1-ethyl-2,3-dihydro-1H-inden-5-ol], the IC50 worked out at 85 nM.

As to `C/C=C1\C(=O)Cc2cc(O)cc(-c3ncc4c(N5C[C@H]6CC[C@@H](C5)N6)nc(OC[C@@]56CCCN5C[C@H](F)C6)nc4c3F)c21` [Example 264, (Z)-7-(4-((1R,5S)-3,8-diazabicyclo[3.2.1]octan-3-yl)-8-fluoro-2-(((2R,7aS)-2-fluorotetrahydro-1H-pyrrolizin-7a(5H)-yl)methoxy)pyrido[4,3-d]pyrimidin-7-yl)-1-ethylidene-5-hydroxy-1,3-dihydro-2H-inden-2-one], the half-maximal inhibitory concentration (IC50) was above 10000 nM.

`C#Cc1c(F)ccc2cc(O)cc(-c3ncc4c(N5CCC(NC)C5)nc(OC[C@@]56CCCN5C[C@H](F)C6)nc4c3F)c12` (stereo partly drawn) [Example 58, 5-ethynyl-6-fluoro-4-(8-fluoro-2-(((2R,7aS)-2-fluorotetrahydro-1H-pyrrolizin-7a(5H)-yl)methoxy)-4-(3-(methylamino)pyrrolidin-1-yl)pyrido[4,3-d]pyrimidin-7-yl)naphthalen-2-ol]: the IC50 was above 2500 nM.

In the case of `CCc1c(F)ccc2cc(O)cc(-c3ccc4c(N5C[C@H]6CC[C@@H](C5)N6)nc(OC[C@@]56CCCN5C[C@H](F)C6)nc4n3)c12` [Example 141, 4-(4-((1R,5S)-3,8-diazabicyclo[3.2.1]octan-3-yl)-2-(((2R,7aS)-2-fluorotetrahydro-1H-pyrrolizin-7a(5H)-yl)methoxy)pyrido[2,3-d]pyrimidin-7-yl)-5-ethyl-6-fluoronaphthalen-2-ol], the IC50 is above 2500 nM.

As for `O=C1CCCc2cc(O)cc(-c3ccc4c(N5C[C@H]6CC[C@@H](C5)N6)nc(OC[C@@]56CCCN5C[C@H](F)C6)nc4c3F)c21` [Example 296, 8-(4-((1R,5S)-3,8-diazabicyclo[3.2.1]octan-3-yl)-8-fluoro-2-(((2R,7aS)-2-fluorotetrahydro-1H-pyrrolizin-7a(5H)-yl)methoxy)quinazolin-7-yl)-6-hydroxy-3,4-dihydronaphthalen-1(2H)-one], the 50% inhibitory concentration (IC50) was above 2500 nM.

For `CCC1CCc2cc(O)cc(-c3ncc4c(NCC5(N(C)C)CCC5)nc(OC[C@@]56CCCN5C[C@H](F)C6)nc4c3F)c21` (stereo partly drawn) [Example 423, 7-(4-(((1-(dimethylamino)cyclobutyl)methyl)amino)-8-fluoro-2-(((2R,7aS)-2-fluorotetrahydro-1H-pyrrolizin-7a(5H)-yl)methoxy)pyrido[4,3-d]pyrimidin-7-yl)-1-ethyl-2,3-dihydro-1H-inden-5-ol], the half-maximal inhibitory concentration (IC50) came to 55 nM.

With `C#Cc1c(F)ccc2cc(O)cc(N3CCc4c(nc(OC[C@@]56CCCN5C[C@H](F)C6)nc4N4C[C@H]5CC[C@@H](C4)N5)C3)c12` [Example 202, 4-(4-((1R,5S)-3,8-diazabicyclo[3.2.1]octan-3-yl)-2-(((2R,7aS)-2-fluorotetrahydro-1H-pyrrolizin-7a(5H)-yl)methoxy)-5,8-dihydropyrido[3,4-d]pyrimidin-7(6H)-yl)-5-ethynyl-6-fluoronaphthalen-2-ol], the concentration for half-maximal inhibition (IC50) is 7.5 nM.

Take `C#CC1CCc2cc(O)cc(-c3ncc4c(N5C[C@H]6CC[C@@H](C5)N6)nc(OC[C@@]56CCCN5C[C@H](F)C6)nc4c3F)c21` (stereo partly drawn) [Example 247, 7-(4-((1R,5S)-3,8-diazabicyclo[3.2.1]octan-3-yl)-8-fluoro-2-(((2R,7aS)-2-fluorotetrahydro-1H-pyrrolizin-7a(5H)-yl)methoxy)pyrido[4,3-d]pyrimidin-7-yl)-1-ethynyl-2,3-dihydro-1H-inden-5-ol]: the half-inhibitory concentration (IC50) turned out to be 6.1 nM.

In the case of `CSc1nccc2cc(O)cc(-c3ncc4c(N5C[C@H]6CC[C@@H](C5)N6)nc(OC[C@@]56CCCN5C[C@H](F)C6)nc4c3F)c12` [Example 341, 8-(4-((1R,5S)-3,8-diazabicyclo[3.2.1]octan-3-yl)-8-fluoro-2-(((2R,7aS)-2-fluorotetrahydro-1H-pyrrolizin-7a(5H)-yl)methoxy)pyrido[4,3-d]pyrimidin-7-yl)-1-(methylthio)isoquinolin-6-ol], the IC50 came to 25 nM.

For the molecule `CCc1c(F)ccc2cc(O)cc(-c3ccc4c(N5C[C@H]6CC[C@@H](C5)N6)c(C#N)c(OC[C@@]56CCCN5C[C@H](F)C6)nc4c3)c12` [Example 172, 4-((1R,5S)-3,8-diazabicyclo[3.2.1]octan-3-yl)-7-(8-ethyl-7-fluoro-3-hydroxynaphthalen-1-yl)-2-(((2R,7aS)-2-fluorotetrahydro-1H-pyrrolizin-7a(5H)-yl)methoxy)quinoline-3-carbonitrile], the half-inhibitory concentration (IC50) came to 1230 nM.
